Measured values: patent EP0358154B1, “Novel cyclobutane derivative and process for producing same” (NIPPON KAYAKU KABUSHIKI KAISHA, priority 1988, dated 1990)
Converted amounts (≈) assume the structure as drawn. Read-outs that look alike come from different tables or passages of the source.

Key:
[1] = test system: human cervical cancer HeLa S3 cell; assay: Growth inhibition of HeLa S3 cells, Methylene Blue dyeing (Method 5); type: cell-based; details: read-out: IC50(µg/ml) HeLaS3
Description: Carcinostatic activities on human cervical cancer HeLa S3 cell, mouse leukemia L1210 cell and […] cell were examined by the following methods. HeLa S3 cell was made into a suspension (7.5 x 10^3 cells/ml). The suspension was spread on a 96-well flat plate at a rate of 0.2 ml/well. After culturing it at 37°C for 24 hours in 5% carbon dioxide incubator, 10 microliters of a sample was added and cultivation was carried out for 72 hours. Then, culture fluid was taken out from each well and immobilized with methanol, after which 0.1 ml/well of 0.05% Methylene Blue/10 mM-Tris-HCl (pH 8.5) solution was added and dyeing was carried out at room temperature for 30 minutes. The dyed fluid in each well was withdrawn by means of aspirator and three times washed with pure water. Then, 3% HCl was added at a rate of 0.2 ml/well and the resulting mixture was sealed and allowed to stand at room temperature for about 24 hours, to extract pigment from the cells. Optical absorbance of each well at 660 nm was measured by means of […] Microplate Reader, from which growth inhibitory rate (%) at varied concentration was calculated according to the following equation. […] Growth inhibitory rate (%) = (1 - A1 /A0 ) x 100 [formula] wherein A1 = Absorbance in the treated group, A0 = Absorbance in the control group.

human leukemia P388 cell = assay: Growth inhibition of P388 cells, cell counting (Method 6); type: cell-based; details: read-out: IC50(µg/ml) P388
Description: (§1) Carcinostatic activities on human cervical cancer HeLa S3 cell, mouse leukemia L1210 cell and […] cell were examined by the following methods. Cells of P388 and L1210 were spread onto a 24-well plate. After adding a sample, it was cultured at 37°C for 48 hours in 5% CO2 incubator. After the culture, the number of cells was counted by means of […]. The growth inhibitory rate in the treated group, based on that in the control group, was calculated from the following equation, from which 50% inhibitory concentration (CI50, micrograms/ml) was determined: The results obtained are as shown in Table 3. Growth inhibitory rate (%) = [1-(NT -NO )/NC -NO ] x 100 [formula] wherein NT = Cell number in treated group NO = cell number at the start of culture NC = Cell number in control group Table 3

[2] = test system: human Cytomegalovirus (HCMV); assay: Anti-HCMV plaque formation inhibition on human embryonal fibroblast (Method 2); type: cell-based; details: read-out: IC50(µg/ml) HCMV
Description: Antiviral activity against human Cytomegalovirus (HCMV) belonging to DNA virus was examined by the following method.
Anti-HCMV activity was determined in the following manner. Thus, a 35 mm dish having a single layer of human embryonal fibroblast was infected with 100 PFU of HCMV (A0169 strain). After adsorption for one hour, one layer of a medium (0.5% agarose, 2% fetal calf serum) containing a varied concentration of sample compound was superposed thereon, and cultivation was carried out at 37°C for 10 days in 5% (v/v) carbon dioxide incubator. Then, formation of plaque was measured, from which 50% inhibitory value (IC50) was determined.

[3] = test system: mouse leukemia L1210 cell; assay: Growth inhibition of L1210 cells, cell counting (Method 6); type: cell-based; details: read-out: IC50(µg/ml) L1210
Description: as §1

[4] = test system: Human Immunodeficiency Virus (HIV); assay: Anti-HIV activity in MT-4 cells, virus antigen by fluorescent antibody method (Method 4); type: cell-based; details: Human immunodeficiency virus 1, MT4, 96 h, read-out: IC50(µg/ml) HIV
Description: Antiviral activity against Human Immunodeficiency Virus (HIV) belonging to […] was examined by the following method.
MT-4 cell (about 50,000 cells/ml) was introduced into a 24-well tray, to which was added […] of a solution containing a predetermined quantity of sample compound. Culture was carried out at 37°C for 2 hours in 5% (v/v) carbon dioxide incubator. Then, 10^3 to 10^4 infection units of HIV was added and cultured for 4 days, after which a part of the culture fluid was applied onto a slide glass and immobilized with acetone and development of virus antigen was tested by fluorescent antibody method.
As the primary antibody of fluorescent antibody method, serum of AIDS patient was used. As the secondary antibody, […] was used.

[5] = test system: simple Herpes 2 type virus (HSV-II); assay: Plaque formation inhibition, HSV-II on Vero cell monolayer (Method 1); type: cell-based; details: read-out: IC50(µg/ml) HSV-2
Description: (§2) Antiviral activities against simple Herpes 1 type virus (HSV-I) and simple Herpes 2 type virus (HSV-II), both belonging to DNA virus, were examined by the following methods.
(§3) A 6-well multi-plate having a single layer of Vero cell (derived from the kidney cell of African Green-Monkey was infected with 100 to 150 PFU (plaque forming units) of virus. After adsorption at 37°C for one hour, a layer of agar medium (Eagle MEM medium containing 1.5% of agar) containing a varied concentration of sample was superposed thereon, and a cultivation was carried out at 37°C for 48 hours in 5% (v/v) carbon dioxide incubator. The formation of plaque was measured, from which 50% inhibitory value (IC50) was determined.

[6] = test system: herpes simplex virus type 2 (HSV-2); assay: HSV-2 infection in mice, survival (Experimental Example 6); type: in vivo, Balb/c mice; details: for Means survival time / Survivors/Total: once a day for 10 days, monitored 20 days
Description: Activity of the sample (compound No. 2) against herpes simplex virus type 2 (HSV-2) infection was examined in mice. Balb/c mice (6 week-old, male) were inoculated intraperitoneally (l.p.) with HSV-2 strain 186 at 4.8 x 10^5 PFU/0.2 ml per mouse. The sample was formulated in saline and applied either orally (p.o.) or i.p. at the indicated doses once a day for 10 days, starting 6 hrs after virus infection. The mortality was monitored for 20 days after inoculation. Efficacy of the sample was indicated as extension of survival time and number of survivors. Aciclovir (ACV: commercialized antiviral agent) was used as reference sample.

[7] = test system: simple Herpes 1 type virus (HSV-I); assay: Plaque formation inhibition, HSV-I on Vero cell monolayer (Method 1); type: cell-based; details: read-out: IC50(µg/ml) HSV-1
Description: as §2, §3

B hepatitis virus (HBV) = assay: Anti-HBV activity in HB611 liver cells, HBV DNA by Southern method (Method 3); type: cell-based; details: read-out: IC50(µg/ml) HBV
Description: Antiviral activity against B hepatitis virus (HBV) belonging to DNA virus was examined by the following method.
According to the procedure of Dulbecco (Proc. Natl. Acad. Sci. USA, 84, 444 (1987)), cultured liver cell strain HB611 producing and releasing active B hepatitis virus was cultured in a modified Eagle medium (GIBCO) at 37°C at a CO2 concentration of 5% in the presence of 10% fetal calf serum, 200 micrograms/ml of G418, 100 µ/ml of Penicillin and 100 µ/ml of Streptomycin. The culture fluid was inoculated onto a 6-well plate at a rate of 5 x 10^4 cells/well (35 mm). One or two days after, 50% confluence was reached, when a predetermined quantity of sample compound was added and cultivation was continued. Thereafter, cultivation was continued for 15 days, while refreshing the medium with a fresh medium containing the same concentrations of the chemicals at intervals of 3 days. Then, the medium was removed, and the cell bodies were treated with 0.5 ml of Lysis buffer (10 mM Tris HCl, pH 7.8/5 mM Na2EDTA, 1% SDS/0.1 mg/ml […]) at 37°C for one hour and dissolved thereinto. The DNA thus obtained was purified by RNase treatment, phenolchloroform treatment and ethanol precipitation.
Then, 5 micrograms of DNA was subjected to Hind III treatment, and DNA pattern was analyzed according to Southern method by using ^32P-labelled B hepatitis virus DNA as a probe.

Nc1nc2c(ncn2[C@@H]2C[C@H](CO)[C@H]2CO)c(=O)[nH]1 [Compound 2, 9-[(1R,2R,3S)-2,3-Bis(hydroxymethyl)cyclobutane-1-yl] -guanine]
IC50 ([1]; HeLa S3, 72 h): 19 µg/mL (≈ 71.6 µM) | IC50 (human leukemia P388 cell; P388, 48 h): 1.6 µg/mL (≈ 6.03 µM) | IC50 ([2]; Human betaherpesvirus 5, Fibroblast, 240 h): 0.4 µg/mL (≈ 1.51 µM) | IC50 ([3]; L1210, 48 h): 8.1 µg/mL (≈ 30.5 µM) | IC50 [4]: 0.3 µg/mL (≈ 1.13 µM) | IC50 ([5]; Human alphaherpesvirus 2, Vero, 48 h): 0.13 µg/mL (≈ 0.49 µM) | Means survival time ([6]; i.p., 1.25 mg/kg/day): 19.8 days | Survivors/Total ([6]; i.p., 1.25 mg/kg/day): 7/10 | Means survival time ([6]; i.p., 2.5 mg/kg/day): 18.9 days | Survivors/Total ([6]; i.p., 2.5 mg/kg/day): 9/10 | Means survival time ([6]; i.p., 5 mg/kg/day): 20.0 days | Survivors/Total ([6]; i.p., 5 mg/kg/day): 10/10 | Means survival time ([6]; i.p., 10 mg/kg/day): 20.0 days | Survivors/Total ([6]; i.p., 10 mg/kg/day): 10/10 | Means survival time ([6]; i.p., 20 mg/kg/day): 20.0 days | Survivors/Total ([6]; i.p., 20 mg/kg/day): 10/10 | reducing mortality rate of mice infected with HSV-2 ([6]; irrespective of administration routes (i.p., p.o.), 1.25 to 20 mg/kg per day): highly effective | Means survival time ([6]; p.o., 1.25 mg/kg/day): 12.4 days | Survivors/Total ([6]; p.o., 1.25 mg/kg/day): 2/10 | Means survival time ([6]; p.o., 2.5 mg/kg/day): 14.7 days | Survivors/Total ([6]; p.o., 2.5 mg/kg/day): 4/10 | Means survival time ([6]; p.o., 5 mg/kg/day): 18.9 days | Survivors/Total ([6]; p.o., 5 mg/kg/day): 8/10 | Means survival time ([6]; p.o., 10 mg/kg/day): 19.8 days | Survivors/Total ([6]; p.o., 10 mg/kg/day): 9/10 | Means survival time ([6]; p.o., 20 mg/kg/day): 19.7 days | Survivors/Total ([6]; p.o., 20 mg/kg/day): 9/10 | IC50 ([7]; Human alphaherpesvirus 1, Vero, 48 h): 0.03 µg/mL (≈ 0.113 µM) | IC50 (B hepatitis virus (HBV); HB611, 360 h): 0.86 µg/mL (≈ 3.24 µM)

Nc1ncnc2c1ncn2[C@@H]1C[C@H](CO)[C@H]1CO [Compound 1, 9-[(1R,2R,3S)-2,3-Bis(hydroxymethyl)cyclobutane-1-yl] -adenine]
IC50 ([1]; HeLa S3, 72 hours, growth inhibition): 14 µg/mL (≈ 56.2 µM) | IC50 (human leukemia P388 cell; P388, 48 hours, growth inhibition): 0.58 µg/mL (≈ 2.33 µM) | IC50 ([2]; Human betaherpesvirus 5, 240 h, human embryonal fibroblast, A0169 strain, plaque formation, 10 days): 12 µg/mL (≈ 48.1 µM) | IC50 ([3]; L1210, 48 hours, growth inhibition): 1.1 µg/mL (≈ 4.41 µM) | IC50 ([4]; MT-4 cell, cultured for 4 days, virus antigen): 0.03 µg/mL (≈ 0.12 µM) | IC50 ([5]; Human alphaherpesvirus 2, Vero cell, plaque formation, 48 hours): 8.9 µg/mL (≈ 35.7 µM) | IC50 ([7]; Human alphaherpesvirus 1, Vero cell, plaque formation, 48 hours): 7.3 µg/mL (≈ 29.3 µM) | IC50 (B hepatitis virus (HBV); 360 h, HB611 cells, 15 days, HBV DNA): 0.024 µg/mL (≈ 0.0963 µM)

Nc1nc2c(ncn2COCCO)c(=O)[nH]1 [ACV, Aciclovir, reference compound]
Means survival time ([6]; i.p., 12.5 mg/kg/day): 11.1 days | Survivors/Total ([6]; i.p., 12.5 mg/kg/day): 1/10 | Means survival time ([6]; i.p., 25 mg/kg/day): 12.7 days | Survivors/Total ([6]; i.p., 25 mg/kg/day): 1/10 | Means survival time ([6]; i.p., 50 mg/kg/day): 16.1 days | Survivors/Total ([6]; i.p., 50 mg/kg/day): 5/10 | Means survival time ([6]; i.p., 100 mg/kg/day): 5.4 days | Survivors/Total ([6]; i.p., 100 mg/kg/day): 2/10 | Means survival time ([6]; p.o., 12.5 mg/kg/day): 9.3 days | Survivors/Total ([6]; p.o., 12.5 mg/kg/day): 0/10 | Means survival time ([6]; p.o., 25 mg/kg/day): 11.1 days | Survivors/Total ([6]; p.o., 25 mg/kg/day): 0/10 | Means survival time ([6]; p.o., 50 mg/kg/day): 14.8 days | Survivors/Total ([6]; p.o., 50 mg/kg/day): 4/10 | Means survival time ([6]; p.o., 100 mg/kg/day): 14.3 days | Survivors/Total ([6]; p.o., 100 mg/kg/day): 2/10
